Measured values as given in patent publication US4746664A, “Substituted-3,4-dihydro-4-(2,4,6-trimethoxyphenylimino)-2(1H)-pyrimidone s useful as cardiotonic, antihypertensive, cerebrovascular vasodilator and anti-platelet agent” (Fujisawa Pharmaceutical Co., Ltd., priority 1983, dated 1988).
Structures can show the parent of a compound that is named as a salt.

Legend:
[1] = tested on: Mongrel dogs (left ventricular pressure, dp/dt max); assay: Cardiotonic activity (dp/dt max change, anesthetized dogs, i.v.); type: in vivo; conditions: Canis lupus familiaris, intravenous, read-out: dp/dt M.C. (percentage of dp/dt max changes)
Experimental: Test Method A (Cardiotonic activity): Mongrel dogs of either sex were anesthetized with sodium pentobarbital, 35 mg/kg, i.p. The animals were allowed to breathe spontaneously. The left carotid artery was isolated and a catheter (USCI, #8F) filled with heparinized saline was inserted and advanced into the left ventricle. the catheter was connected to a pressure transducer (Nihonkohden, MPU-0.5A) to measure the left ventricular pressure, from which dp/dt max was derived by analog computing. To measure the systemic blood pressure the left femoral artery was cannulated. The blood pressure pulse was used to trigger a heart rate meter. Another catheter was positioned in the vena cave through right femoral vein for injection of drugs. Systemic blood pressure, left ventricular pressure, dp/dt max and heart rate were recorded simultaneously on a polygram (Nihonkohden, RJG-4008). Test compound was dissolved in distilled water (0.2 ml/kg) or dimethyl sulfoxide (0.04 ml/kg) and injected into the femoral veing. The parameters after dosing were compared with those during the predosing period. Test results were represented in terms of percentage of dp/dt max changes (dp/dt M.C) calculated by following formula, and are shown in table 1. [formula]

[2] = tested on: platelet aggregation induced by adenosine diphosphate (ADP); assay: Anti-platelet activity: ADP-induced aggregation of rabbit platelet rich plasma; type: cell-based; conditions: Oryctolagus cuniculus, 2 min, rabbit PRP, ADP 2.5 μM, pH 7.4, 37° C., read-out: ID50 ADP
Experimental: (§1) Test Method B (Anti-platellet activity):
(§2) Platelet rich plasma (PRP) which contains 6.5-7.5×10^8 platelet/ml was prepared from rabbit blood. To the 200 μl of PRP, 5 μl of calcium chloride (1 mM) and 50 μl of pH 7.4 Tris-acetate solution (5 mM) containing 120 mM NaCl and test compound were added successively, and then stirred for 2 min. at 37° C. To the solution, 5 μl of adenosine diphosphate (ADP) (2.5 μM) or collagen (2.5 μg/ml) was added as an aggregation inducer. Aggregation was measured by using an aggregometer (NKK HEMA TRACER 1).

[3] = tested on: Mongrel dogs (cerebral blood flow); assay: Cerebrovascular vasodilative activity (cerebral blood flow, anesthetized dogs, i.v.); type: in vivo; conditions: intravenous
Experimental: Test Method C (Cerebrovescular vasodilative activity):
Mongrel dogs of either sex were anesthetized with sodium pentobarbital (35 mg/kg. i.p.). After the external carotid artery was ligated, a flowmeter probe was fitted to the common carotid artery. Polyethylene cannulas were inserted in the femoral artery for measurement of blood pressure and in the saphenous vein for injection of drug. Blood pressure was measured with a pressure transducer and the arterial pulse was also used to trigger a heart rate meter. Blood pressure, heart rate and cerebral blood flow (C.B.F.) were recorded on a polygraph.
Test compound was dissolved in an equimolar solution of hydrochloric acid and diluted with water (0.2 ml/kg), and injected intravenously. The prarmeters after dosing were compared with those during the predosing period.

[4] = tested on: platelet aggregation induced by collagen; assay: Anti-platelet activity: collagen-induced aggregation of rabbit platelet rich plasma; type: cell-based; conditions: Oryctolagus cuniculus, 2 min, rabbit PRP, collagen 2.5 μg/ml, pH 7.4, 37° C., read-out: ID50 Collagen
Experimental: as §1, §2

[5] = tested on: uninephrectomized DOCA/saline male Wistar rats (mean arterial pressure); assay: Antihypertensive activity (DOCA hypertensive rats, oral); type: in vivo; conditions: 1.0 mg/kg
Experimental: Test Method D (Antihypertensive activity):
Five-week old male Wistar rats were uninephrectomized under anesthesia. Deoxycorticosterone acetate (DOCA) (30 mg/kg), suspended in peanut oil, was injected subcutaneously twice a week and 1% saline was substituted for the drinking water. Animals with mean blood pressure 150-200 mmHg were used for experiment between 5 and 7 weeks after surgery.
The test compounds were administered orally. Blood pressure was measured at the femoral artery by means of a pressure transducer and recorded as electrically integrated values of mean arterial pressure.

IC50 [2] | IC50 [4] | SMILES | change in vivo at 0.1 mg/kg [1] | change in vivo at 1 mg/kg [1] | C.B.F. increase ([3]; 0.1 mg/kg) | further results
– | – | Nc1cc(-c2ccncc2)c[nH]c1=O [Amrinone, 3-Amino-5-(4-pyridyl)-2(1H)-pyridinone, reference compound] | 9% | 80% | – | –
240 nM | 150 nM | COc1ccc(-c2cc(=Nc3c(C)cc(C)cc3C)n(C)c(=O)n2C)cc1OC [Example 48, 3,4-dihydro-6-(3,4-dimethoxyphenyl)-1,3-dimethyl-4-(2,4,6-trimethylphenylimino)-2(1H)-pyrimidinone] | – | – | 57.0% | change in vivo at 0.01 mg/kg [1]: 43%; C.B.F. increase ([3]; 0.01 mg/kg): 40.0%
– | – | COc1ccc(-c2cc(=Nc3ccc(Cl)cc3C)n(C)c(=O)n2C)cc1OC [Example 49, 4-(4-Chloro-2-methylphenylimino)-3,4-dihydro-6-(3,4-dimethoxyphenyl)-1,3-dimethyl-2(1H)-pyrimidinone] | 68% | – | – | –
– | – | COc1ccc(-c2cc(=Nc3cccnc3)n(C)c(=O)n2C)cc1OC [Example 50, 3,4-dihydro-6-(3,4-dimethoxyphenyl)-1,3-dimethyl-4-(3-pyridylimino)-2(1H)-pyrimidinone dihydrochloride] | – | 98% | – | –
– | – | COc1ccc(-c2cc(=Nc3ccccc3)n(C)c(=O)n2C)cc1OC [Example 55, 3,4-Dihydro-6-(3,4-dimethoxyphenyl)-1,3-dimethyl-4-phenylimino-2(1H)-pyrimidinone] | – | – | 38.0% | C.B.F. increase ([3]; 1.0 mg/kg): 77.0%
– | – | COc1ccc(-c2cc(=Nc3cc(OC)c(OC)c(OC)c3)n(C)c(=O)n2C)cc1OC [Example 56, 3,4-Dihydro-6-(3,4-dimethoxyphenyl)-1,3-dimethyl-4-(3,4,5-trimethoxyphenylimino)-2(1H)-pyrimidinone] | 44% | 88% | 50.0% | C.B.F. increase ([3]; 1.0 mg/kg): 52.0%
300 nM | 420 nM | COc1cc(OC)c(N=c2cc(-c3ccc(OC)c(OC)c3)n(C)c(=O)n2C)c(OC)c1 [Example 57, 3,4-Dihydro-6-(3,4-dimethoxyphenyl)-1,3-dimethyl-4-(2,4,6-trimethoxyphenylimino)-2(1H)-pyrimidinone] | 60% | 126% | 57.0% | Effect Max (maximum decrease of blood pressure) [5]: 44.0%; C.B.F. increase ([3]; 0.01 mg/kg): 59.0%
340 nM | 190 nM | COc1ccc(-c2cc(=Nc3c(C)cccc3C)n(C)c(=O)n2C)cc1OC [Example 58, 3,4-Dihydro-6-(3,4-dimethoxyphenyl)-1,3-dimethyl-4-(2,6-dimethylphenylimino)-2(1H)-pyrimidinone] | 84% | 145% | – | –
3600 nM | 230 nM | COc1ccc(-c2cc(=Nc3ccc(O)cc3)n(C)c(=O)n2C)cc1OC [Example 59, 3,4-Dihydro-6-(3,4-dimethoxyphenyl)-1,3-dimethyl-4-(4-hydroxyphenylimino)-2(1H)-pyrimidinone] | 57% | 158% | – | –
– | – | COc1ccc(-c2cc(=Nc3c(C)cc(C)cc3C)n(C)c(=O)n2C)cc1 [Example 62, 3,4-Dihydro-1,3-dimethyl-6-(4-methoxyphenyl)-4-(2,4,6-trimethylphenylimino)-2(1H)-pyrimidinone] | – | 102% | – | –
– | – | COc1ccc(-c2cc(=Nc3c(C)cc(C)cc3C)n(C)c(=O)[nH]2)cc1OC [Example 64, 3,4-Dihydro-6-(3,4-dimethoxyphenyl)-3-methyl-4-(2,4,6-trimethylphenylimino)-2(1H)-pyrimidinone] | 98% | 93% | – | –
– | – | CCCn1c(-c2ccc(OC)c(OC)c2)cc(=Nc2c(C)cc(C)cc2C)n(C)c1=O [Example 65, 3,4-Dihydro-6-(3,4-dimethoxyphenyl)-3-methyl-1-n-propyl-4-(2,4,6-trimethylphenylimino)-2(1H)-pyrimidinone] | 50% | 206% | – | –
– | – | COc1ccc(-c2cc(=Nc3c(C)cc(C)cc3C)[nH]c(=O)n2C)cc1OC [Example 69, 3,4-Dihydro-6-(3,4-dimethoxyphenyl)-1-methyl-4-(2,4,6-trimethylphenylimino)-2(1H)-pyrimidinone] | 42% | – | – | change in vivo at 0.01 mg/kg [1]: 45%
790 nM | 170 nM | CCn1c(-c2ccc(OC)c(OC)c2)cc(=Nc2c(C)cc(C)cc2C)n(C)c1=O [Example 72, 3,4-dihydro-6-(3,4-dimethoxyphenyl)-1-ethyl-3-methyl-4-(2,4,6-trimethylphenylimino)-2(1H)-pyrimidinone] | 95% | – | 35.0% | Effect Max (maximum decrease of blood pressure) [5]: 38.0%; change in vivo at 0.01 mg/kg [1]: 12%; C.B.F. increase ([3]; 1.0 mg/kg): 59.0%
